The supplement of paper PMC10307832

Experiments:
Decitabine = compound: Nc1ncn([C@H]2C[C@H](O)[C@@H](CO)O2)c(=O)n1 [Decitabine]; assay: relative viability (nuclei count vs DMSO), 5 days (fraction); higher = more cells survive
How it was run: (§1)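 Only plates meeting two conditions passed: control CV below 25% and at least one doubling. Lung cancer cell lines, kept overnight at 37 °C in 1536-well plates, were pinned with five library-drug doses (not always all listed) √10 apart on vehicle-anchored plates and grown 5 days without medium change. A one-step fix, permeabilisation and Hoechst stain preceded 4× imaging and MetaXpress nuclear counting. Viability equals treated-well nuclei divided by vehicle-well nuclei, as the median over plates.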

Cediranib = compound: COc1cc2c(Oc3ccc4[nH]c(C)cc4c3F)ncnc2cc1OCCCN1CCCC1 [Cediranib]; assay: as above
How it was run: as §1

Row | Cell Line | relative viability (Decitabine; 0.04 µM) | relative viability (Decitabine; 0.1265 µM) | relative viability (Decitabine; 0.4 µM) | relative viability (Decitabine; 1.265 µM) | relative viability (Decitabine; 2 µM, anchor plate) | relative viability (Decitabine; 4 µM) | relative viability (Cediranib; 0.04 µM) | relative viability (Cediranib; 0.1265 µM) | relative viability (Cediranib; 0.4 µM) | relative viability (Cediranib; 1.265 µM) | relative viability (Cediranib; 4 µM)
1 | SW 1573 | 0.815 | 0.944 | 0.732 | 0.486 | 0.504 | 0.379 | 1.01 | 0.974 | 0.969 | 0.828 | 0.927
2 | NCI-H661 | 0.928 | 0.944 | 0.764 | 0.59 | 0.565 | 0.557 | 0.988 | 0.98 | 0.974 | 0.957 | 1.1
3 | LU99A | 0.923 | 0.987 | 0.981 | 0.868 | 0.906 | 0.773 | 0.982 | – | 0.976 | 0.845 | 0.985
4 | LCLC-97TM1 | 0.425 | 0.538 | 0.209 | 0.134 | 0.238 | 0.15 | 1.04 | – | 0.941 | 0.949 | 0.984
5 | LC-2-ad | 0.832 | 0.839 | 0.679 | 0.411 | 0.786 | 0.501 | 1.04 | 0.871 | 0.953 | 0.955 | 0.785
6 | NCI-H1395 | 0.627 | 0.671 | 0.729 | 0.508 | 0.744 | 0.528 | 0.885 | 0.832 | 0.887 | 0.884 | 0.993
7 | NCI-H2228 | 0.665 | 0.539 | 0.426 | 0.283 | – | 0.275 | 1.18 | 1.08 | 0.763 | 1.06 | 1.13
8 | NCI-H1944 | 0.9 | 0.869 | 0.541 | 0.381 | 0.429 | 0.441 | 0.93 | 0.955 | 0.918 | 0.883 | 0.936
9 | HOP-62 | 0.631 | 0.472 | 0.253 | 0.165 | 0.212 | 0.199 | 1.07 | 0.695 | 0.892 | 0.983 | 1.08
10 | NCI-H2347 | 0.885 | 0.887 | 0.697 | 0.6 | 0.587 | 0.66 | 1.02 | 0.84 | 0.983 | 1.02 | 1.11
11 | NCI-H2087 | 0.574 | 0.567 | 0.561 | 0.296 | 0.294 | 0.367 | 1.09 | 1.18 | 0.776 | 1.14 | 1.27
12 | EPLC-272H | 0.6 | 0.749 | – | 0.46 | 0.386 | 0.407 | 0.77 | – | 0.915 | 0.792 | 0.975
13 | LXF-289 | 0.778 | 0.651 | 0.441 | 0.345 | 0.387 | 0.312 | 1.06 | 0.778 | 0.928 | 1.01 | 1.03
14 | COR-L23 | 0.677 | 0.629 | 0.484 | 0.379 | 0.441 | 0.308 | 1.06 | 0.957 | 0.914 | 1 | 1.27
15 | RERF-LC-KJ | 0.951 | 0.967 | 0.561 | 0.688 | 0.728 | 0.642 | 1.01 | 0.862 | 0.946 | 0.963 | 1.05
16 | NCI-H1755 | 0.95 | 0.949 | 0.848 | 0.598 | 0.717 | 0.515 | 1.1 | 0.861 | 0.954 | 1.05 | 1.01

Row | Cell Line | relative viability (Decitabine; 0.04 µM) | relative viability (Decitabine; 0.1265 µM) | relative viability (Decitabine; 0.4 µM) | relative viability (Decitabine; 1.265 µM) | relative viability (Decitabine; 2 µM, anchor plate) | relative viability (Decitabine; 4 µM) | relative viability (Cediranib; 0.04 µM) | relative viability (Cediranib; 0.1265 µM) | relative viability (Cediranib; 0.4 µM) | relative viability (Cediranib; 1.265 µM) | relative viability (Cediranib; 4 µM)
17 | PC-14 | 0.393 | 0.449 | 0.156 | 0.149 | 0.218 | 0.163 | 1.06 | 1.08 | 0.959 | 0.931 | 0.998
18 | NCI-H322M | 0.685 | 0.821 | 0.742 | 0.591 | 0.699 | 0.587 | 0.929 | 1.18 | 0.871 | 0.819 | 1.02
19 | NCI-H1666 | 0.938 | 0.9 | 0.866 | 0.827 | 0.764 | 0.851 | 1.02 | 1.18 | 0.989 | 1.01 | 1.02
20 | A-427 | 0.668 | 0.612 | 0.322 | 0.322 | 0.558 | 0.292 | 1.01 | – | 0.951 | 0.943 | 1.07
21 | NCI-H2342 | 0.977 | 1.05 | 0.97 | 0.671 | 0.745 | 0.645 | 1 | 1.1 | 0.899 | 0.746 | 1.07
22 | NCI-H1651 | 0.954 | 1.01 | 0.961 | 0.799 | 0.64 | 0.767 | 0.977 | 0.963 | 0.96 | 0.951 | 0.999
23 | NCI-H1793 | 0.715 | 0.756 | 0.707 | 0.498 | 0.547 | 0.398 | 0.786 | 0.891 | 0.704 | – | 0.978
24 | NCI-H1299 | 1.03 | 1.02 | 1.02 | 0.943 | – | 0.874 | 1.02 | 1.02 | 0.99 | 1.03 | 1.09
25 | NCI-H520 | 0.847 | 0.811 | 0.508 | 0.472 | 0.517 | 0.374 | 1.12 | 0.747 | 0.917 | 0.804 | 0.865
26 | NCI-H522 | 0.949 | 0.938 | 0.624 | 0.627 | 0.686 | 0.611 | 1.04 | 0.745 | 0.947 | 0.961 | 1.02
27 | 201T | 0.981 | 1.02 | 1.04 | 0.612 | 0.855 | 0.953 | 1.04 | 1.1 | 0.911 | 0.956 | 0.974
28 | NCI-H460 | 0.929 | 0.938 | 0.766 | 0.38 | 0.495 | 0.265 | 1.02 | 0.98 | 0.957 | 0.984 | 1.05
29 | NCI-H1623 | 0.864 | 0.749 | 0.664 | 0.52 | – | 0.516 | 1 | 0.599 | 0.879 | 1.04 | 1.07
30 | NCI-H596 | 0.894 | 0.871 | 0.607 | 0.799 | 1.04 | 0.692 | 1.06 | 0.959 | 0.935 | 0.907 | 1.1
31 | HARA | 0.79 | 0.818 | 0.482 | 0.381 | 0.519 | 0.374 | 0.908 | 1.01 | 0.878 | 1.05 | 1.01
32 | NCI-H2170 | 0.839 | 0.746 | 0.685 | 0.475 | 0.471 | 0.473 | 1 | 0.764 | 0.983 | 0.828 | 1.03
